# Read-outs that look alike come from different tables or passages of the source.
# Tests used:
# hr GR antag = molecular target: T1, hr GR antag (Homo sapiens, UniProt P04150); assay: receptor profile (Table S4); type: biochemical
# T1 sequence (P04150 1-777): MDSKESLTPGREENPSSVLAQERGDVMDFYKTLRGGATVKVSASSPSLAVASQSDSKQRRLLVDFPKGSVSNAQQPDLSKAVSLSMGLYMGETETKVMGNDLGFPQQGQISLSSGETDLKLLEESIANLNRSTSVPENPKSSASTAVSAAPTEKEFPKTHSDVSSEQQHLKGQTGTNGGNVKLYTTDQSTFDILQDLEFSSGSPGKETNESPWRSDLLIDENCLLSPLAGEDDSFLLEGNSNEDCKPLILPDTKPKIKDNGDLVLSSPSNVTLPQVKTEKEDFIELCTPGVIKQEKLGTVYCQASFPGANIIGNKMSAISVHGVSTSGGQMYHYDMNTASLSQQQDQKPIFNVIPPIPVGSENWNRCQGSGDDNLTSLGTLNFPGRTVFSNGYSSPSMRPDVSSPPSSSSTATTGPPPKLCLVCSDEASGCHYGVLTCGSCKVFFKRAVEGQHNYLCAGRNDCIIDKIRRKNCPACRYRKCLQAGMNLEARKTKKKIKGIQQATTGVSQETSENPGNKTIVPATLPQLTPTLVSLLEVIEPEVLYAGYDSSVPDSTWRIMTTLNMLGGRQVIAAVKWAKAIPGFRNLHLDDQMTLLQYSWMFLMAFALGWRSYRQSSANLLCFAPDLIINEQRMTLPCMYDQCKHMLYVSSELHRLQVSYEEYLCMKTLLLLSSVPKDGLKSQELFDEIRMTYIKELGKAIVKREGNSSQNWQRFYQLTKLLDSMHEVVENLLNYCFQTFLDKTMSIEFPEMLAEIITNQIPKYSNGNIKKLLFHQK
# hERG = hERG (Homo sapiens, UniProt Q12809); assay: receptor profile (Table S4)
# Chain of hERG (Q12809 whole entry): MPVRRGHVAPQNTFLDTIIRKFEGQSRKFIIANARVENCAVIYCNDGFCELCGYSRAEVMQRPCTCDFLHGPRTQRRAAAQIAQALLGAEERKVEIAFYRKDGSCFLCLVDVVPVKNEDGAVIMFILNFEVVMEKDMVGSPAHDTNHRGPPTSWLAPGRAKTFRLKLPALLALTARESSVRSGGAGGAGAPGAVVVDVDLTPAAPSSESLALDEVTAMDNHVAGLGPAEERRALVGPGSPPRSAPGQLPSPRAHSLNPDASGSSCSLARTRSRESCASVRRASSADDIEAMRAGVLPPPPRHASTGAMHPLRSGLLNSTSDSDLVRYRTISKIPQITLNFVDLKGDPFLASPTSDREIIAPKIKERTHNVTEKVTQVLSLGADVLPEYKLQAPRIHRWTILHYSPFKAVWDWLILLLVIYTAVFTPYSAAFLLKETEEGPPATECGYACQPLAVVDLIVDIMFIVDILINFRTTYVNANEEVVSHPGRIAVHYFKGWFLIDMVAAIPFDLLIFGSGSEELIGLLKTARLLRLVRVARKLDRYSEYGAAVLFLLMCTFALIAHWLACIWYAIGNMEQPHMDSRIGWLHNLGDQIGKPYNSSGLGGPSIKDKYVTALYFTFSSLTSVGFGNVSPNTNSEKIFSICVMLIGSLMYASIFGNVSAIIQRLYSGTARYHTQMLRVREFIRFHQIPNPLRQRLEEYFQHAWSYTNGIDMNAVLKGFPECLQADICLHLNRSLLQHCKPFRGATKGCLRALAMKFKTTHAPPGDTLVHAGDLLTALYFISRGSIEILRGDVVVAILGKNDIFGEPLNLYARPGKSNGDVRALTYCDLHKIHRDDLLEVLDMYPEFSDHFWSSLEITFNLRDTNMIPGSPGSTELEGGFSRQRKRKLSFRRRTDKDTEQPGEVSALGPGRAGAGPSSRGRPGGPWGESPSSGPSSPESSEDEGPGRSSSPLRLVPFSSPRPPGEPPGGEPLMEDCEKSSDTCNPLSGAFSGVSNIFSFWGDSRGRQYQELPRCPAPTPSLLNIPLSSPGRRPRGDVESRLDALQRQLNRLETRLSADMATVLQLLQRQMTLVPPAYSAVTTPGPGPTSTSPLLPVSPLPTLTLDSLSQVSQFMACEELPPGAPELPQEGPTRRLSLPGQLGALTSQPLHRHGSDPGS
# hr V1a = hr V1a (Homo sapiens, UniProt P37288); assay: receptor profile (Table S4); type: binding
# Chain of hr V1a (P37288 whole entry): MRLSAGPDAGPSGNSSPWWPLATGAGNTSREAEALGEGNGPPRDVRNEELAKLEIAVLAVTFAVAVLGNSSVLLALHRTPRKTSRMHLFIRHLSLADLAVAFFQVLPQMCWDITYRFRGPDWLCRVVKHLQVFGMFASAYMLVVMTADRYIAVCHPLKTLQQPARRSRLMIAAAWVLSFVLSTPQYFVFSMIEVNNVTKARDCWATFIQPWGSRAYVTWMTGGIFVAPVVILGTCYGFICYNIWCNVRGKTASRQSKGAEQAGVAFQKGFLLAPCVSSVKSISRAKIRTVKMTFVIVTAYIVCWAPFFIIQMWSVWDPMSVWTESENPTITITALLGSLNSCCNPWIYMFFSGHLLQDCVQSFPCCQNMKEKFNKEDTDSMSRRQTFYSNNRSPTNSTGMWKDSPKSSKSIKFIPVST
# in vitro AMES = type: cell-based
# rVMAT2 uptake = rVMAT2 uptake (Rattus norvegicus, UniProt Q01827); assay: receptor profile (Table S4); type: biochemical
# Chain of rVMAT2 uptake (Q01827 whole entry): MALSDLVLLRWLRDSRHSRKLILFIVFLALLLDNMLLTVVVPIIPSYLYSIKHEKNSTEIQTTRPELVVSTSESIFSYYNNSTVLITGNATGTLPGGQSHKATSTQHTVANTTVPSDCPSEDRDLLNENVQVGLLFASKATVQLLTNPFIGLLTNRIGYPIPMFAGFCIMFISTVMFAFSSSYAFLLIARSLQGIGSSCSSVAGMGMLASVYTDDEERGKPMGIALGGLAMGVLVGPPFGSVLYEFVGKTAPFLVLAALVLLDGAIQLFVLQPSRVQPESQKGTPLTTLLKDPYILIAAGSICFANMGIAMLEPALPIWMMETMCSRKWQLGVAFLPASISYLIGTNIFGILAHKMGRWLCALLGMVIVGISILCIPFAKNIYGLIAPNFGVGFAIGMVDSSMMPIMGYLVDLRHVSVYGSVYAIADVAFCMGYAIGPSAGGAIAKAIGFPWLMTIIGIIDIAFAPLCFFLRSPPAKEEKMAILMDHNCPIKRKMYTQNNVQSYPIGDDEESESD
# [1] = metabolite profile in dog hepatocytes; type: in vitro ADME; settings: 10 μM of 1 for 4 h, UV 250 nm, normalized to largest peak
# hr NET = hr NET (Homo sapiens, UniProt P23975); assay: receptor profile (Table S4); type: binding
# Chain of hr NET (P23975 whole entry): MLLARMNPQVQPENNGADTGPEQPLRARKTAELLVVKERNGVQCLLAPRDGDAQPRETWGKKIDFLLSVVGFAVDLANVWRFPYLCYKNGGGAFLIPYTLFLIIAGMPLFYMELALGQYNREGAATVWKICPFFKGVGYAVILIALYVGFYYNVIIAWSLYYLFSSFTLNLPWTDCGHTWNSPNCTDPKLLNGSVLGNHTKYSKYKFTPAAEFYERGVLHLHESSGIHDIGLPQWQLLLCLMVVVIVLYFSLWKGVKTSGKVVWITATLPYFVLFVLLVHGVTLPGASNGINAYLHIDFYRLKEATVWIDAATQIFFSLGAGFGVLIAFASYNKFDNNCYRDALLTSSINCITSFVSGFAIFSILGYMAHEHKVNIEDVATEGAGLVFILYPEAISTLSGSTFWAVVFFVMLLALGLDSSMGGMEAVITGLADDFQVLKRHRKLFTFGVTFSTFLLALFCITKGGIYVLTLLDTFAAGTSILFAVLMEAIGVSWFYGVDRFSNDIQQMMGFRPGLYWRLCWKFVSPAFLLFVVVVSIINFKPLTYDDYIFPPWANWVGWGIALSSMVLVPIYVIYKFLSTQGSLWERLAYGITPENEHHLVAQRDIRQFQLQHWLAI
# BSEP = BSEP (Homo sapiens, UniProt O95342); assay: receptor profile (Table S4), first BSEP line
# Chain of BSEP (O95342 whole entry): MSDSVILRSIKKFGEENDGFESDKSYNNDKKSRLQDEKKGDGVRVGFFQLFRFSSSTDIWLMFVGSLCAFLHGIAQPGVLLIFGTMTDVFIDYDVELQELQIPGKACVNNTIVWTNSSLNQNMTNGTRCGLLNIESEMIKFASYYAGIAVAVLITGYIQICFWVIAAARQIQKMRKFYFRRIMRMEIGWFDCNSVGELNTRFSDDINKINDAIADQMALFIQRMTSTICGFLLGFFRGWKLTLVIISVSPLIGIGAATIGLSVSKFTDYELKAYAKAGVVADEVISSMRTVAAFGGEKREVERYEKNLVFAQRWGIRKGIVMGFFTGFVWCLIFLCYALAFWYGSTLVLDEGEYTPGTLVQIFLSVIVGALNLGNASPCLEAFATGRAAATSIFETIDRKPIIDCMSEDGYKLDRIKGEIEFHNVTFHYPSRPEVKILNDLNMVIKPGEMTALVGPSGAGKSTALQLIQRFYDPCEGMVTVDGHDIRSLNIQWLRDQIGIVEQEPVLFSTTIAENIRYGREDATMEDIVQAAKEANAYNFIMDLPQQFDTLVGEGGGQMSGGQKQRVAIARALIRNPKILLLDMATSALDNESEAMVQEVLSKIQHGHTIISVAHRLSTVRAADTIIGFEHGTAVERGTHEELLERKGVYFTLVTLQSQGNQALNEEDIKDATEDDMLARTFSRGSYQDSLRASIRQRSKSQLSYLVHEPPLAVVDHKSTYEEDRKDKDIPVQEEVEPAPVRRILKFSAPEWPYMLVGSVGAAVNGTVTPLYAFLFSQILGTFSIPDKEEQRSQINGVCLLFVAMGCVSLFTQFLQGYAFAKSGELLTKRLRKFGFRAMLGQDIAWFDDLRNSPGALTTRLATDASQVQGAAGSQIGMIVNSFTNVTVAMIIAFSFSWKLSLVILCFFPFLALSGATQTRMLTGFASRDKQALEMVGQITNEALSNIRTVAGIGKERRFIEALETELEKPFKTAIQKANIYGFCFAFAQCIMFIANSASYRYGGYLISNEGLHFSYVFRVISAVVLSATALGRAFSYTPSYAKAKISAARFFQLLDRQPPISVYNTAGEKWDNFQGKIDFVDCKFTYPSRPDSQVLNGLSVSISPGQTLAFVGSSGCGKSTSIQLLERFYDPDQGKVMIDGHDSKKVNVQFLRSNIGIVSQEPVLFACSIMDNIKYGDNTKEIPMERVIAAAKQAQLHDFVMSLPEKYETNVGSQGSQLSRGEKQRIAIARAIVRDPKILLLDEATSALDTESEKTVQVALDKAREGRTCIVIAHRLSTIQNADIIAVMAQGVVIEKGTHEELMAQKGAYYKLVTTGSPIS
# hr AT1 = molecular target: T2, hr AT1 (Homo sapiens, UniProt P30556); assay: receptor profile (Table S4); type: binding
# T2 sequence (P30556 1-359): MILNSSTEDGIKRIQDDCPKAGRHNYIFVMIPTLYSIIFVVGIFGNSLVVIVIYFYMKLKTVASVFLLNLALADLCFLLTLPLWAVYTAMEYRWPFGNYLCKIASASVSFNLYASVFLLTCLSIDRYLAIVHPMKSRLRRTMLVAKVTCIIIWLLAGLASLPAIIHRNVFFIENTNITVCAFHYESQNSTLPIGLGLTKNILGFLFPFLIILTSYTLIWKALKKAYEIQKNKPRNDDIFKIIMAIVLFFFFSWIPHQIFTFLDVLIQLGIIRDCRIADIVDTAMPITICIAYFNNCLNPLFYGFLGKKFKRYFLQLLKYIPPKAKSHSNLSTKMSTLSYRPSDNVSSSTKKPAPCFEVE
# hr PXR antag = hr PXR antag (Homo sapiens, UniProt O75469); assay: receptor profile (Table S4); settings: hr PXR antag
# Chain of hr PXR antag (O75469 whole entry): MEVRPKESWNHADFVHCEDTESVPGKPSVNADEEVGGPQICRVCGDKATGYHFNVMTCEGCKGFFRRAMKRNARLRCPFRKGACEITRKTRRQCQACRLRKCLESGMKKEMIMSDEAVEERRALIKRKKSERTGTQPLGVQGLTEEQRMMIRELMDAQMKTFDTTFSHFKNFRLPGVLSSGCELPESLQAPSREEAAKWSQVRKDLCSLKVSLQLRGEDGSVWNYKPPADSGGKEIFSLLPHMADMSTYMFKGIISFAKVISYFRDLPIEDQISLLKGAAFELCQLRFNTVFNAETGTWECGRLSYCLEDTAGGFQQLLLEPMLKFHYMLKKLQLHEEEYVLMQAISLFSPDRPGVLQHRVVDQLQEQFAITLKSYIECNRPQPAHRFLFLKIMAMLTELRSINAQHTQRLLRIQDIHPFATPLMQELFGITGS
# PXR = PXR (Homo sapiens, UniProt O75469); assay: receptor profile (Table S4); settings: human
# Chain of PXR (O75469 whole entry): as above
# hr COX-2 = molecular target: T3, hr COX-2 (Homo sapiens, UniProt P35354); assay: receptor profile (Table S4); type: biochemical
# T3 sequence (P35354 18-604): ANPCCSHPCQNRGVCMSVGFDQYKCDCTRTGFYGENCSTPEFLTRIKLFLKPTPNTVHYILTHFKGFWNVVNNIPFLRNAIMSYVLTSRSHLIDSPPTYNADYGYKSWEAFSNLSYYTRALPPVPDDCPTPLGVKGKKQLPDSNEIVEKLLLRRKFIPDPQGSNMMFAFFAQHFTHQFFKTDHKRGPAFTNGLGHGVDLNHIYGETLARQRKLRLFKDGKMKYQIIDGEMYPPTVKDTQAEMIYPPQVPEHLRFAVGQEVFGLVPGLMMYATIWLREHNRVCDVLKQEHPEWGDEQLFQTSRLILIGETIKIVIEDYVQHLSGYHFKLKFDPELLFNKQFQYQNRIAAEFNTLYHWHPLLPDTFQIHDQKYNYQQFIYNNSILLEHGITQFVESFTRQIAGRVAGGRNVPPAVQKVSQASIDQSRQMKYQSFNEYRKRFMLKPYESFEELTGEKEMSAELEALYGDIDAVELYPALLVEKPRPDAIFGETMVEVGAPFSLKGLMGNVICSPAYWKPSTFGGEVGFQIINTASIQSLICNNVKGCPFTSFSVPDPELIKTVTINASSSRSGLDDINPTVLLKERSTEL
# hr GHS = hr GHS (Homo sapiens, UniProt Q92847); assay: receptor profile (Table S4); type: binding
# Chain of hr GHS (Q92847 whole entry): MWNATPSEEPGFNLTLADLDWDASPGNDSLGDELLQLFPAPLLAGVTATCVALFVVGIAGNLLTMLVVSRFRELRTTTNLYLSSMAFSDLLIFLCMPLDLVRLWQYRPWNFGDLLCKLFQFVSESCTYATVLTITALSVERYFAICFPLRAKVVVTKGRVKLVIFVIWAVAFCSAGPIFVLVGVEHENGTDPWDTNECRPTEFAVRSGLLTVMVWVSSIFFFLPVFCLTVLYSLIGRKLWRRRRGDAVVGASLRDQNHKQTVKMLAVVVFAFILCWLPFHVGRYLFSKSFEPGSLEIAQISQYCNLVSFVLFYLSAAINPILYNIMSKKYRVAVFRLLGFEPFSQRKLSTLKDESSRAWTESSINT
# [2] = metabolite profile in monkey hepatocytes; type: in vitro ADME; settings: 10 μM of 1 for 4 h, UV 250 nm, normalized to largest peak
# hr Cav1.2 = hr Cav1.2 (Homo sapiens, UniProt Q13936); assay: receptor profile (Table S4); settings: hr Cav1.2
# Cav1.2 = Cav1.2 (Homo sapiens, UniProt Q13936); assay: receptor profile (Table S4); settings: human
compound,measurement,setting,value
"Cc1nc(C)c(C(=O)Nc2ccc(F)c(-c3nc4ncc(-c5ncccc5C)cn4n3)c2)o1 [compound 1, N-(4-Fluoro-3-(6-(3-methylpyridin-2-yl)-[1,2,4]triazolo[1,5-a]pyrimidin-2-yl)phenyl)-2,4-dimethyloxazole-5-carboxamide]",EC50/IC50,hr GR antag; hr GR antag,> 30 µM
same,inhibition at 10 µM,hr GR antag; read-out: % inh/act @ 10 µM,0%
same,inhibition at 30 µM,hr GR antag; read-out: % inh/act @ 30 µM,10%
same,EC50/IC50,hERG; hERG,> 30 µM
same,inhibition at 10 µM,hERG; human,-36%
same,inhibition at 30 µM,hERG; human,-25%
same,EC50/IC50,hr V1a; hr V1a,> 30 µM
same,inhibition at 10 µM,hr V1a; read-out: % inh/act @ 10 µM,11%
same,inhibition at 30 µM,hr V1a; read-out: % inh/act @ 30 µM,19%
same,"AMES, risk of mutagenicity",in vitro AMES,did not indicate a risk
same,EC50/IC50,rVMAT2 uptake; rVMAT2 uptake,3.9 µM
same,inhibition at 10 µM,rVMAT2 uptake; read-out: % inh/act @ 10 µM,64%
same,inhibition at 30 µM,rVMAT2 uptake; read-out: % inh/act @ 30 µM,78%
same,inhibition at 10 µM,rVMAT2 uptake; read-out: VMAT2 inhibition,61%
same,abundance dog,[1],+++ (+++ > 75%)
same,EC50/IC50,hr NET; hr NET,> 30 µM
same,inhibition at 10 µM,hr NET; read-out: % inh/act @ 10 µM,19%
same,inhibition at 30 µM,hr NET; read-out: % inh/act @ 30 µM,24%
same,inhibition at 10 µM,BSEP,28%
same,inhibition at 30 µM,BSEP,45%
same,EC50/IC50,hr AT1; hr AT1,> 30 µM
same,inhibition at 10 µM,hr AT1; read-out: % inh/act @ 10 µM,22%
same,inhibition at 30 µM,hr AT1; read-out: % inh/act @ 30 µM,41%
same,EC50/IC50,hr PXR antag,> 30 µM
same,inhibition at 10 µM,PXR,26%
same,EC50/IC50,hr COX-2; hr COX-2,> 30 µM
same,inhibition at 10 µM,hr COX-2; read-out: % inh/act @ 10 µM,9%
same,inhibition at 30 µM,hr COX-2; read-out: % inh/act @ 30 µM,13%
same,EC50/IC50,hr GHS; hr GHS,> 30 µM
same,inhibition at 10 µM,hr GHS; read-out: % inh/act @ 10 µM,12%
same,inhibition at 30 µM,hr GHS; read-out: % inh/act @ 30 µM,12%
same,abundance monkey,[2],+++ (+++ > 75%)
same,EC50/IC50,hr Cav1.2,> 50 µM
same,inhibition at 10 µM,Cav1.2,-3%
same,inhibition at 30 µM,Cav1.2,-7%

# Reference: article PMC7549094 (Journal of Medicinal Chemistry, 2020)
